Among the data in ChEMBL document CHEMBL1152560, “Substituted 2-arylbenzothiazoles as kinase inhibitors: hit-to-lead optimization” (Bioorg Med Chem, 2009) are residual activity values, retold here.

Assay [1] has as its target T1, Protein kinase C zeta type (Homo sapiens) (UniProt Q05513).
T1 sequence (whole entry): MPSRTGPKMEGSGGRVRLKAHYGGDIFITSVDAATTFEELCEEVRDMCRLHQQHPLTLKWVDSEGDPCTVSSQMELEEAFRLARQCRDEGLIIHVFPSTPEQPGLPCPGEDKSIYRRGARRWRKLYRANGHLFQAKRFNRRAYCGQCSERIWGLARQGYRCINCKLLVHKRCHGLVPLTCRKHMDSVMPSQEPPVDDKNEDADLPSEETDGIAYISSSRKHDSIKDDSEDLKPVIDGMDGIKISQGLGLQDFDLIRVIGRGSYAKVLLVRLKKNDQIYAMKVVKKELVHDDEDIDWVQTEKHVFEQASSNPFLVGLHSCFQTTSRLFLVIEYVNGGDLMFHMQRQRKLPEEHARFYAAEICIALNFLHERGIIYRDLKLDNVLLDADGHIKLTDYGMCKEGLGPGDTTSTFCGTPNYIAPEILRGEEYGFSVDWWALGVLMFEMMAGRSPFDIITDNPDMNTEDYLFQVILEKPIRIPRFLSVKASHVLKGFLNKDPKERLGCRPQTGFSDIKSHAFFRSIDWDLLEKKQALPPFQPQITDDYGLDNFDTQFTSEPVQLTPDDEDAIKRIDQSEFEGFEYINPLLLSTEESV
Put plainly: Residual activity of PKCzeta at 1 uM by microplate scintillation counting.

The target of assay [2] is T2, Tyrosine-protein kinase Mer (Homo sapiens) (UniProt Q12866).
T2 sequence (whole entry): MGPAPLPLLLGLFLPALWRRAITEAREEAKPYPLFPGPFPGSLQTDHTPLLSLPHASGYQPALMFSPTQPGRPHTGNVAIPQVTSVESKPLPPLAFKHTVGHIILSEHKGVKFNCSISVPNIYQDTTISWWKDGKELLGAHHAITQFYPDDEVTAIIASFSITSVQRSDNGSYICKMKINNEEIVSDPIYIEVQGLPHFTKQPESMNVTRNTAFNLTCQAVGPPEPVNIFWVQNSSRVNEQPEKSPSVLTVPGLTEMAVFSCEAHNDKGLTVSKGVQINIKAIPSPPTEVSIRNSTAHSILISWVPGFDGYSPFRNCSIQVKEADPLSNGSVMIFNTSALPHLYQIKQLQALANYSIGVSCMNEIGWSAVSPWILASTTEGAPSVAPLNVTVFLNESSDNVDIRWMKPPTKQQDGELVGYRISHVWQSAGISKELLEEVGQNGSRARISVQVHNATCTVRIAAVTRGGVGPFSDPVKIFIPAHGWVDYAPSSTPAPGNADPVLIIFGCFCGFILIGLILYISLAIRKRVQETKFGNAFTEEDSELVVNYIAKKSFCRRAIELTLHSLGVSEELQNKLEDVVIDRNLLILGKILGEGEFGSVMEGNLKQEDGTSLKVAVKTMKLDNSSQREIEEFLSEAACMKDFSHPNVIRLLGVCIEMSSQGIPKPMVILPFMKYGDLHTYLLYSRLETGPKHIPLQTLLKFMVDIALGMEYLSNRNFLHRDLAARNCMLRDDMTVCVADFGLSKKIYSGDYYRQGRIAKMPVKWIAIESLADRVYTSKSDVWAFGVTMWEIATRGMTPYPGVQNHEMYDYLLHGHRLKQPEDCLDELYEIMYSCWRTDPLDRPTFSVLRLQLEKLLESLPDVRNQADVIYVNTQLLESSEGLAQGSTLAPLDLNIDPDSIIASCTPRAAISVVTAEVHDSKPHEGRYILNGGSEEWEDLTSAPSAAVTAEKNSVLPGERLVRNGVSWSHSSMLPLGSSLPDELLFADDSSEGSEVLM
Kind of assay: Residual activity of MERTK at 1 uM by microplate scintillation counting.

For assay [3], the target named is CDK3/cyclin E (Homo sapiens) (UniProt P24864+O96020+Q00526). Put plainly: Residual activity of CDK3/Cyclin E at 10 uM by microplate scintillation counting. Type of assay: protein-complex assay.
Sequence of CDK3/cyclin E (Homo sapiens) (O96020 whole entry, looked up): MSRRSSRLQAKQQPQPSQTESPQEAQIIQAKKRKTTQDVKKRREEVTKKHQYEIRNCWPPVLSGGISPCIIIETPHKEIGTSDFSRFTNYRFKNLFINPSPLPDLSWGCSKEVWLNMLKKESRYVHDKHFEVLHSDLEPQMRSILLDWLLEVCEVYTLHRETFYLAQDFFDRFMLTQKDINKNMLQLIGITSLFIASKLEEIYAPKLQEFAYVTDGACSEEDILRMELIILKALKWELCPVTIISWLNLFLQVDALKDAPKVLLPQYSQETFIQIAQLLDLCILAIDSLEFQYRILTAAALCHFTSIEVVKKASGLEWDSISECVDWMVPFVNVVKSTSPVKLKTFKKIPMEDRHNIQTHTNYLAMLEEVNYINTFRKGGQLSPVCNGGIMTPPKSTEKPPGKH
Sequence of CDK3/cyclin E (Homo sapiens) (P24864 whole entry, looked up): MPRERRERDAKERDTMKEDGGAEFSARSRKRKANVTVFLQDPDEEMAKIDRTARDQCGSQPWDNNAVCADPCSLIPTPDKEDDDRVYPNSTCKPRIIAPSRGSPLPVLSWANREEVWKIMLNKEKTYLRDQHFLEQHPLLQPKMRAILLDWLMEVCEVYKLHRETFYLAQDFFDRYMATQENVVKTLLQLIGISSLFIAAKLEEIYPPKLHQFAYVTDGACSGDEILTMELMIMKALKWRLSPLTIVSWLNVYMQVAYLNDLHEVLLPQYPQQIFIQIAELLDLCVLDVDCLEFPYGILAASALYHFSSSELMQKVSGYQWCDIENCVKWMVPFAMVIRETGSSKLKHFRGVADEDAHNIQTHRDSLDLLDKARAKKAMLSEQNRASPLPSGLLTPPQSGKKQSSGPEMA
Sequence of CDK3/cyclin E (Homo sapiens) (Q00526 whole entry, looked up): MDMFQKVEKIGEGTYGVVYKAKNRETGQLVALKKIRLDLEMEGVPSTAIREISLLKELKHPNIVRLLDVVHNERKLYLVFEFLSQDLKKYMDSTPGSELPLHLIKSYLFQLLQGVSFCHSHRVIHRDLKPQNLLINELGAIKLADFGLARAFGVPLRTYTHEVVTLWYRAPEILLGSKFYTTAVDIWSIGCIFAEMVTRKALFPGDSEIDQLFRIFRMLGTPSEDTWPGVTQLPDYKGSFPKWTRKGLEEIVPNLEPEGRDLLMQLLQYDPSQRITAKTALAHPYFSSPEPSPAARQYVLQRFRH
Assay [4] has as its target T3, Muscle, skeletal receptor tyrosine-protein kinase (Homo sapiens) (UniProt O15146).
T3 sequence (whole entry): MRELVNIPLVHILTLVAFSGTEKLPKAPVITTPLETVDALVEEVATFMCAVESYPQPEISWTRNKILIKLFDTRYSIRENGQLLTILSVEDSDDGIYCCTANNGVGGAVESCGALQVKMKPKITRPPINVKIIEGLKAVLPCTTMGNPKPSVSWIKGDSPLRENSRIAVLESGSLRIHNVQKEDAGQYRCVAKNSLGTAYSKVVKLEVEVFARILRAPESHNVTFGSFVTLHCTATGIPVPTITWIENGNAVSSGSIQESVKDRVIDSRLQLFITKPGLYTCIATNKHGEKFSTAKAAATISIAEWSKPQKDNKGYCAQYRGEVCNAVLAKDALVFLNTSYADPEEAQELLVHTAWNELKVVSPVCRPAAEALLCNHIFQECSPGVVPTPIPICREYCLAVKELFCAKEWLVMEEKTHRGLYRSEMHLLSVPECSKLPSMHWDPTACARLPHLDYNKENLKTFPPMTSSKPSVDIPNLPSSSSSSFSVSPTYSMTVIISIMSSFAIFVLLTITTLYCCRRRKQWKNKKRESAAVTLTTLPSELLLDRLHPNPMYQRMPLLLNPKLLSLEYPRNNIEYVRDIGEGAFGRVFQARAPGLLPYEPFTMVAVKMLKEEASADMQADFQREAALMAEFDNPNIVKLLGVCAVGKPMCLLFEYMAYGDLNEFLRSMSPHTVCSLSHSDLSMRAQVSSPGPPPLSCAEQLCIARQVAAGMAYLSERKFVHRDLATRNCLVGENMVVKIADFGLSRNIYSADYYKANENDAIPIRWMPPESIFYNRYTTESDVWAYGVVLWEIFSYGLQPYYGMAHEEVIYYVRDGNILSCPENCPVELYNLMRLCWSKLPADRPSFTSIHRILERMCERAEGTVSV
Kind of assay: Residual activity of MUSK at 10 uM by microplate scintillation counting.

In assay [5] the target is T4, Serine/threonine-protein kinase Chk1 (Homo sapiens) (UniProt O14757).
T4 sequence (whole entry): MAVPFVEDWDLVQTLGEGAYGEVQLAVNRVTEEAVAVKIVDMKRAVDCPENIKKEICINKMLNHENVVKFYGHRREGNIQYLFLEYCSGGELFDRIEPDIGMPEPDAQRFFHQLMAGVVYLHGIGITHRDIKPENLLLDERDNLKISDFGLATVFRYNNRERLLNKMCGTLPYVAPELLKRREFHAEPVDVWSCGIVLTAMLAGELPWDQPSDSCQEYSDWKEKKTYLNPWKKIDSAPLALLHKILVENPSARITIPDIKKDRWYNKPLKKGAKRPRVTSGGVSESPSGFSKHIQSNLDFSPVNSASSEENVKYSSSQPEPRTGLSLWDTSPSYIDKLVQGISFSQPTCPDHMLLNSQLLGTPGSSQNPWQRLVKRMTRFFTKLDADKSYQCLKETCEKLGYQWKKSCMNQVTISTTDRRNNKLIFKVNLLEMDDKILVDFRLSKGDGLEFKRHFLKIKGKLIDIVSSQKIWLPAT
Put plainly: Residual activity of CHK1 at 0.1 uM by microplate scintillation counting.

`COc1cc2c(Oc3ccc(-c4nc5ccccc5s4)cc3)ncnc2cc1OCCCN1CCCC1`: the residual activity turned out to be 109% in assay [1]; 11% in assay [2]; 113% in assay [3]; 46% in assay [4]; 94% in assay [5].

As for `COc1cc2c(Oc3ccc(-c4nc5ccccc5s4)cc3F)ncnc2cc1OCCCN1CCN(C)CC1`, the residual activity was 107% in assay [1]; 19% in assay [2]; 119% in assay [3]; 41% in assay [4]; 106% in assay [5].

As for `COc1cc2c(Oc3ccc(-c4nc5ccccc5s4)cc3)ncnc2cc1OCCCN1CCN(C)CC1`, the residual activity in assay [1] was found to be 92%; in assay [2] it was 16%; in assay [3] it was 130%; in assay [4], 44%; in assay [5], 99%.

One may read the residual activity as the signal under treatment as a percentage of the control signal.
